“Also recorded” adds a separate entry of the source.
What was measured:
[1] = biological target: T1, GST-PTIP BRCT domains (residues 550-757) (Homo sapiens, UniProt Q6ZW49); assay: Isothermal titration calorimetry of peptides with PTIP tandem BRCT domains; format: binding; settings: PTIP; N.D.B = no detectable binding by ITC, tandem BRCT domain concentration of at least 150 μM
T1 construct: 15 μM GST-PTIP BRCT domains (residues 550-757); made in house; host or cells: E. coli DH5a
Description: (§1) For deletion mapping of the PTIP and BRCA1 BRCT phospho-binding region and for expression of MDC 1, 53BP1 and Rad9 (FIG. 17-18), fragments were generated by PCR for in vitro transcription/translation and cloned into a pcDNA3.1 expression vector (Invitrogen, San Diego, Calif.). For production of recombinant GST-PTIP BRCT domains and GSTBRCA1 BRCT domains, residues 550-757 of PTIP and residues 1634-1863 of BRCA1 were ligated into the EcoRI and NotI sites of pGEX-4T1 (Pharmacia, Peapack, N.J.) and subsequently transformed into DH5a E. Coli. Protein induction occurred at 37° C. for 4 hours or at 25° C. for 16 hours in the presence of 0.4 mM IPTG. For peptide filter blot analysis and measurements of peptide binding affinity by ITC, GSTPTIP BRCT domains (residues 550-757) and GST-BRCA1 BRCT domains (residues 1634-1863) were isolated from bacterial lysates using glutathione agarose, eluted with 40 mM glutathione, and dialyzed into 50 mM Tris/HCl (pH 8.1), 300 mM NaCl. The GFP-PTIP constructs FL (residues 1-757), !BRCT (residues 1-550), or (BRCT)2 (residues 550-757) were cloned into the EcoRI and SalI sites of the pEGFP-C2 (BD Biosciences Clontech Franklin Lakes, N.J.) expression vector.
(§2) Peptides were synthesized by solid phase technique with three C-terminal lysines to enhance solubility. The peptides were then purified by reverse phase HPLC following deprotection and confirmed by MALDI-TOF mass spectrometry. Calorimetry measurements were performed using a VP-ITC microcalorimeter (MicroCal Inc., Studio City, Calif.). Experiments involved serial 10 μL injections of peptide solutions (20 μM-150 μM) into a sample cell containing 15 μM GST-PTIP BRCT domains (residues 550-757) or 15 μM GST-BRCA1 BRCT domains (residues 1634-1863) in 50 mM Tris/HCl (pH 8.1), 300 mM NaCl. Twenty injections were performed with 240 second intervals between injections and a reference power of 25 μCal/s. Binding isotherms were plotted and analyzed using ORIGIN Software (MicroCal Inc. Studio City, Calif.).

[2] = biological target: T2, GST-BRCA1 BRCT domains (residues 1634-1863) (Homo sapiens, UniProt P38398); assay: Isothermal titration calorimetry of peptides with BRCA1 tandem BRCT domains; format: binding; settings: BRCA1; N.D.B = no detectable binding by ITC, tandem BRCT domain concentration of at least 150 μM
T2 construct: 15 μM GST-BRCA1 BRCT domains (residues 1634-1863); made in house; host or cells: E. coli DH5a
T2 sequence (P38398 1634-1863): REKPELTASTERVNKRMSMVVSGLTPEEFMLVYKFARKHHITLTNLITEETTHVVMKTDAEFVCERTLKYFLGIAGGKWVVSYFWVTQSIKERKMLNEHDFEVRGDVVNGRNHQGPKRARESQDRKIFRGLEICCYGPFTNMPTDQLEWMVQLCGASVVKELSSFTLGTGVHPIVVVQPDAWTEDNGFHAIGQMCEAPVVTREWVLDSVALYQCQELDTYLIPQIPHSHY
Description: as §1, §2

[3] = biological target: T3, GST-PTIP tandem BRCT domains interaction with 53BP1 (Homo sapiens, UniProt Q6ZW49); assay: GST-PTIP tandem BRCT pull-down of 53BP1 from irradiated U2OS cells; format: binding; settings: 350 μM peptide or library, 1 hour at 4° C., IR treated U2OS
T3 construct: 10-20 μg of GST-PTIP BRCT domains (residues 550-757); made in house; host or cells: E. coli DH5a (GST-PTIP BRCT); 53BP1 endogenous from U2OS lysate
T3 sequence (Q6ZW49 862-1069): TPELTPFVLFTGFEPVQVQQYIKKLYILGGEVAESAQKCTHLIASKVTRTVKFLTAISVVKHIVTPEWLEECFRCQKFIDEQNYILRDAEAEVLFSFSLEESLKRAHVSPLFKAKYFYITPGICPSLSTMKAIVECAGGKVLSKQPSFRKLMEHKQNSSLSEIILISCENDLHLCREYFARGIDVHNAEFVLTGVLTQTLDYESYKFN
Procedure: (§3) U2OS cells were either treated with 10 Gy of ionizing radiation or mock irradiated and allowed to recover for 30-120 minutes. Cells were subsequently lysed in 50 mM Tris/HCl (pH7.6), 150 mM NaCl, 1.0% NP-40, 5 mM EDTA, 2 mM DTT, 8 μg/mL pepstatin, 8 μg/mL aprotinin, 8 μg/mL leupeptin, 2 mM Na3VO4, 10 mM NaF, 1 μM microcystin. The lysates (0.5-2 mg) were incubated with 20 μL glutathione beads containing 10-20 μg of GST-PTIP BRCT domains (residues 550-757), GST-BRCA1 BRCT domains (residues 1634-1863), or GST for 120 minutes at 4° C. Beads were washed three times with lysis buffer. Precipitated proteins were eluted in sample buffer and detected by blotting with anti-ATM/ATR substrate (pSer/pThr)Gln antibody (CELL SIGNALING TECHNOLOGY, Inc Beverly, Mass.), polyclonal anti-53BP1 (ONCOGENE […] PRODUCTS, San Diego, Calif. 92121), or monoclonal anti-HA (COVANCE Inc, Princeton, N.J.). For peptide competition experiments, GST-PTIP BRCT domains or GST-BRCA1 BRCT domains were immobilized on glutathionine beads and preincubated with 350 μM of BRCTtide-optimal, 7pT, 7T, pSQ-library, SQ-library, or pTP-library for 1 hour at 4° C. and washed three times with lysis buffer.

[4] = biological target: T4, GST-BRCA1 tandem BRCT domains interaction with phosphoproteins (Homo sapiens, UniProt P38398); assay: GST-BRCA1 tandem BRCT pull-down of DNA damage-induced phosphoproteins from irradiated U2OS cells; format: binding
T4 construct: 15 μM GST-BRCA1 BRCT domains (residues 1634-1863); made in house; host or cells: E. coli DH5a
T4 sequence (P38398 1634-1863): as the sequence (P38398 1634-1863) above
Procedure: as §3

[5] = test system: GST-PTIP tandem BRCT domains interaction with 53BP1; assay: GST-PTIP tandem BRCT pull-down of 53BP1 from irradiated U2OS cells; format: binding, human; settings: 25 mM caffeine prior to irradiation, U2OS
Procedure: as §3

T1 sequence (Q6ZW49 862-1069): as the sequence (Q6ZW49 862-1069) above

Compound	Kd (N.D.B.) [1]	Kd (N.D.B.) [2]	effect of bead pre-incubation with peptide/library on PTIP BRCT interaction with 53BP1 [3]	effect of bead pre-incubation with peptide/library on PTIP BRCT interaction with 53BP1 ([3]; listed as non-phosphorylated counterpart)	effect of pre-incubation with peptide/library on BRCA1 BRCT binding to (pSer or pThr)-Gln-containing proteins ([4]; 350 μM peptide or library, U2OS lysates after 10 Gy)	effect of caffeine treatment of cells on PTIP BRCT interaction with 53BP1 [5]	effect of caffeine pre-treatment of cells on BRCA1 BRCT binding to (pSer or pThr)-Gln-containing proteins ([4]; caffeine prior to γ-irradiation, U2OS)
GAAYDITQVFPFAKKK [BRCTtide-7T]	N.D.B.	N.D.B.	not	not eliminated	not		
Cn1c(=O)c2c(ncn2C)n(C)c1=O [caffeine, reference compound]						disrupted the interaction; also recorded: eliminated	largely eliminated

Reference: patent US20110104713A1, “PRODUCTS AND PROCESSES FOR MODULATING PEPTIDE-PEPTIDE BINDING DOMAIN INTERACTIONS” (priority 2002, published 2011)
